Legend:
Assay in all cases: relative viability (nuclei count vs DMSO), 5 days (fraction); higher = more cells survive
Linsitinib + Tozasertib = compound: C[C@]1(O)C[C@@H](c2nc(-c3ccc4ccc(-c5ccccc5)nc4c3)c3c(N)nccn32)C1 [Linsitinib] + Cc1cc(Nc2cc(N3CCN(C)CC3)nc(Sc3ccc(NC(=O)C4CC4)cc3)n2)n[nH]1 [Tozasertib] (partner 0.1 µM)
Method in brief: (§1)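 A single step with final 0.05% Triton X-100, 1% formaldehyde and 1 ug/ml Hoechst fixed the cells and stained nuclei 5 days after treatment. Lung cancer cell lines in 1536-well plates had been treated by pin tool the day after seeding with one drug alone or a fixed anchor-drug dose plus five library-drug doses (not always all listed) in √10 steps, and nuclei were counted on 4× images. Relative viability is the ratio of nuclei in treated wells to nuclei in vehicle wells, taken as the median of duplicate plates.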

Linsitinib + AZD7762 = compound: C[C@]1(O)C[C@@H](c2nc(-c3ccc4ccc(-c5ccccc5)nc4c3)c3c(N)nccn32)C1 [Linsitinib] + NC(=O)Nc1cc(-c2cccc(F)c2)sc1C(=O)N[C@H]1CCCNC1 [AZD7762] (partner 0.2 µM)
Method in brief: as §1

Ispinesib + Bortezomib = compound: Cc1ccc(C(=O)N(CCCN)[C@@H](c2nc3cc(Cl)ccc3c(=O)n2Cc2ccccc2)C(C)C)cc1 [Ispinesib] + CC(C)C[C@H](NC(=O)[C@H](Cc1ccccc1)NC(=O)c1cnccn1)B(O)O [Bortezomib] (partner 0.002 µM)
Method in brief: as §1

Ispinesib + Lapatinib = compound: Cc1ccc(C(=O)N(CCCN)[C@@H](c2nc3cc(Cl)ccc3c(=O)n2Cc2ccccc2)C(C)C)cc1 [Ispinesib] + CS(=O)(=O)CCNCc1ccc(-c2ccc3ncnc(Nc4ccc(OCc5cccc(F)c5)c(Cl)c4)c3c2)o1 [Lapatinib] (partner 2 µM)
Method in brief: as §1

| Cell Line | relative viability (Linsitinib + Tozasertib; first compound 0.01 µM) | relative viability (Linsitinib + Tozasertib; first compound 0.03162 µM) | relative viability (Linsitinib + Tozasertib; first compound 0.1 µM) | relative viability (Linsitinib + Tozasertib; first compound 0.3162 µM) | relative viability (Linsitinib + Tozasertib; first compound 1 µM) | relative viability (Linsitinib + AZD7762; first compound 0.01 µM) | relative viability (Linsitinib + AZD7762; first compound 0.03162 µM) | relative viability (Linsitinib + AZD7762; first compound 0.1 µM) | relative viability (Linsitinib + AZD7762; first compound 0.3162 µM) | relative viability (Linsitinib + AZD7762; first compound 1 µM) | relative viability (Ispinesib + Bortezomib; first compound 0.001 µM) | relative viability (Ispinesib + Bortezomib; first compound 0.003162 µM) | relative viability (Ispinesib + Bortezomib; first compound 0.01 µM) | relative viability (Ispinesib + Bortezomib; first compound 0.03162 µM) | relative viability (Ispinesib + Bortezomib; first compound 0.1 µM) | relative viability (Ispinesib + Lapatinib; first compound 0.001 µM) | relative viability (Ispinesib + Lapatinib; first compound 0.003162 µM) | relative viability (Ispinesib + Lapatinib; first compound 0.01 µM) | relative viability (Ispinesib + Lapatinib; first compound 0.03162 µM) | relative viability (Ispinesib + Lapatinib; first compound 0.1 µM) |
| --- | --- | --- | --- | --- | --- | --- | --- | --- | --- | --- | --- | --- | --- | --- | --- | --- | --- | --- | --- | --- |
| NCI-H1975 | 0.691 | 0.677 | 0.865 | 0.665 | 0.311 | 0.697 | 0.673 | 0.685 | 0.685 | 0.562 | 0.471 | 0.437 | 0.331 | 0.19 | 0.261 | 0.931 | 0.907 | 0.71 | 0.302 | 0.179 |
| IA-LM | – | – | – | – | – | – | – | – | – | – | 1.09 | 0.814 | 0.866 | 0.0909 | 0.111 | 0.833 | 1.03 | 0.513 | 0.123 | 0.197 |
| NCI-H520 | 0.426 | 0.39 | 0.494 | – | 0.408 | – | – | – | – | – | 0.568 | 0.706 | 0.541 | 0.218 | 0.242 | 0.996 | 0.825 | 0.322 | 0.217 | 0.261 |
| NCI-H1395 | 0.838 | 0.768 | 0.723 | 0.731 | 0.667 | 0.373 | – | 0.394 | 0.477 | 0.38 | – | – | – | – | – | 1.1 | 1.11 | 0.779 | 0.545 | 0.33 |
| EBC-1 | – | – | – | – | – | – | – | – | – | – | 0.663 | 0.626 | 0.476 | 0.207 | 0.263 | 0.203 | 0.204 | 0.223 | 0.13 | 0.193 |
| NCI-H2009 | 0.72 | 0.63 | 0.743 | – | 0.629 | – | – | – | – | – | 1 | 0.986 | 0.854 | 0.189 | 0.261 | 0.954 | 0.781 | 0.558 | 0.142 | 0.305 |
| NCI-H358 | 0.0907 | 0.0851 | 0.114 | 0.0862 | 0.0939 | 0.668 | 0.473 | 0.563 | 0.366 | 0.321 | – | – | – | – | – | 0.475 | 0.421 | 0.473 | 0.345 | 0.215 |
| ChaGo-K-1 | 0.208 | 0.184 | 0.221 | 0.227 | 0.2 | 0.893 | 0.91 | 0.855 | – | 0.799 | 1.02 | 1.45 | 1.11 | 0.966 | 0.379 | – | – | – | – | – |
| SK-LU-1 | 0.357 | – | 0.383 | 0.203 | 0.243 | – | – | – | – | – | 1.32 | 1.39 | 1.48 | 0.585 | 0.461 | 0.797 | 1.06 | 0.825 | 0.468 | 0.364 |
| NCI-H2228 | 0.273 | 0.308 | 0.272 | 0.296 | 0.199 | – | – | – | – | – | 1.2 | 1.21 | 1.48 | 0.474 | 0.448 | 1.23 | 1.29 | 1.26 | 0.363 | 0.422 |
| A549 | – | – | – | – | – | – | – | – | – | – | – | – | – | – | – | 1.07 | 1.07 | 0.952 | 0.172 | 0.127 |
| NCI-H1563 | – | – | – | – | – | – | – | – | – | – | 0.903 | 0.815 | 0.929 | 0.687 | 0.669 | 1.03 | 0.956 | 0.928 | 0.686 | 0.624 |
| NCI-H1703 | – | – | – | – | – | 0.158 | 0.142 | 0.112 | – | 0.12 | 0.28 | 0.298 | 0.0844 | 0.0907 | 0.106 | 1.32 | 0.893 | 0.227 | 0.11 | 0.234 |
| NCI-H1299 | – | – | – | – | – | – | – | – | – | – | 1.02 | 1.06 | 1.07 | 1.01 | 0.671 | 1.02 | 0.988 | 0.979 | 0.813 | 0.3 |
| NCI-H441 | 0.612 | 1.08 | 0.671 | 0.509 | 0.404 | 1.2 | 1.07 | 1.29 | 0.831 | 0.898 | 0.48 | 0.668 | 0.4 | 0.41 | 0.228 | – | – | – | – | – |
| NCI-H661 | 0.361 | 0.383 | 0.335 | 0.308 | 0.368 | – | – | – | – | – | 0.821 | 0.78 | 0.688 | 0.771 | 0.665 | 0.52 | 0.451 | 0.444 | 0.406 | 0.439 |
| NCI-H2342 | 0.554 | 0.54 | 0.516 | 0.651 | 0.412 | 0.405 | 0.544 | 0.526 | 0.454 | 0.414 | – | – | – | – | – | – | – | – | – | – |
| SW 900 | 0.635 | 0.598 | 0.535 | 0.513 | 0.342 | 0.921 | 0.64 | 0.629 | 0.727 | 0.368 | – | – | – | – | – | – | – | – | – | – |
| NCI-H1944 | 0.247 | 0.256 | 0.235 | 0.209 | 0.221 | 0.469 | 0.455 | 0.547 | 0.478 | 0.266 | – | – | – | – | – | 0.863 | 0.799 | 1.01 | 0.528 | 0.27 |
| COR-L23 | 0.196 | 0.207 | 0.396 | 0.174 | 0.152 | – | – | – | – | – | 1.29 | 1.04 | 1.17 | 0.247 | 0.27 | 1.03 | 1.06 | 0.814 | 0.147 | 0.272 |
| NCI-H2170 | 0.732 | 0.76 | 0.681 | 0.513 | 0.678 | 0.918 | 0.959 | 0.768 | – | 0.68 | – | – | – | – | – | 0.265 | 0.252 | 0.269 | 0.182 | 0.214 |
| NCI-H1793 | 0.388 | 0.454 | 0.316 | 0.313 | 0.274 | 0.577 | 0.559 | 0.39 | 0.352 | 0.169 | – | – | – | – | – | 0.655 | 0.84 | 0.909 | 0.377 | 0.238 |
| NCI-H1623 | 0.363 | 0.445 | 0.412 | – | 0.364 | – | – | – | – | – | – | – | – | – | – | – | – | – | – | – |
| COR-L 105 | 0.421 | 0.324 | 0.356 | 0.298 | 0.309 | – | – | – | – | – | 0.836 | 0.664 | 0.325 | 0.311 | 0.303 | 0.347 | 0.311 | 0.251 | 0.247 | 0.265 |

Reference: the supplement of paper PMC10307832
